Results reported in ChEMBL document CHEMBL1131130, “Structure-based design of beta-lactamase inhibitors. 1. Synthesis and evaluation of bridged monobactams” (J Med Chem, 1998).
Values after ≈ are worked out from the molar mass of the structure shown. Active and inactive are the calls of the source. No cut-off for these calls is given here.

What was measured:
[1] = target: Beta-lactamase (Pseudomonas aeruginosa (strain ATCC 15692 / PAO1 / 1C / PRS 101 / LMG12228)) (UniProt P24735)
Description: Deacylation of 18SH Beta-lactamase of Pseudomonas aeruginosa

[2] = Relative permeability as IC50 for beta lactamase inhibition in intact Citrobacter freundii growing cells to the observed IC50 in the same cells treated with 0.7% final concentration of octyl-poly(oxyethylene);NA= Not active; assay type: functional, cell-based
[3] = target: Beta-lactamase (Pseudomonas aeruginosa (strain ATCC 15692 / PAO1 / 1C / PRS 101 / LMG12228)) (UniProt P24735); remark: listed apart in the source
Description: Acylation of Pseudomonas aeruginosa 18SH Beta-lactamase

[4] = target: Beta-lactamase (Pseudomonas aeruginosa (strain ATCC 15692 / PAO1 / 1C / PRS 101 / LMG12228)) (UniProt P24735); remark: listed apart in the source
Description: Affinity for stable acyl 18SH Beta-lactamase complex of Pseudomonas aeruginosa

[5] = Relative permeability as IC50 for beta lactamase inhibition in intact Pseudomonas aeruginosa growing cells to the observed IC50 in the same cells treated with 0.7% final concentration of octyl-poly(oxyethylene); assay type: functional
[6] = tested on: Escherichia coli; experiment: In vitro inhibition of Escherichia coli TEM-3 growth.; assay type: functional
[7] = target: Beta-lactamase (Pseudomonas aeruginosa (strain ATCC 15692 / PAO1 / 1C / PRS 101 / LMG12228), UniProt P24735); experiment: Inhibition of Pseudomonas aeruginosa 18SH Beta-lactamase.
[8] = tested on: Pseudomonas aeruginosa; experiment: In vitro inhibition of Pseudomonas aeruginosa 18SH growth.; assay type: functional
[9] = tested on: Citrobacter freundii; experiment: In vitro inhibition of Citrobacter freundii 1982 growth.; assay type: functional
[10] = Relative permeability as IC50 for beta lactamase inhibition in intact Citrobacter freundii growing cells to the observed IC50 in the same cells treated with 0.7% final concentration of octyl-poly(oxyethylene); assay type: functional
[11] = target: Beta-lactamase TEM (Escherichia coli, UniProt P62593); experiment: Inhibitory activity against Escherichia coli TEM-3 Beta-lactamase;NA=not active
[12] = target: Beta-lactamase (Pseudomonas aeruginosa (strain ATCC 15692 / PAO1 / 1C / PRS 101 / LMG12228)) (UniProt P24735); remark: listed apart in the source
Description: Time taken for deacylation of Pseudomonas aeruginosa 18SH Beta-lactamase

[13] = Relative permeability as IC50 for beta lactamase inhibition in intact Pseudomonas aeruginosa growing cells to the observed IC50 in the same cells treated with 0.7% final concentration of octyl-poly(oxyethylene);NA= Not active; assay type: functional, cell-based

Sequence of Beta-lactamase (Pseudomonas aeruginosa (strain ATCC 15692 / PAO1 / 1C / PRS 101 / LMG12228)) (P24735 27-397 limits assumed): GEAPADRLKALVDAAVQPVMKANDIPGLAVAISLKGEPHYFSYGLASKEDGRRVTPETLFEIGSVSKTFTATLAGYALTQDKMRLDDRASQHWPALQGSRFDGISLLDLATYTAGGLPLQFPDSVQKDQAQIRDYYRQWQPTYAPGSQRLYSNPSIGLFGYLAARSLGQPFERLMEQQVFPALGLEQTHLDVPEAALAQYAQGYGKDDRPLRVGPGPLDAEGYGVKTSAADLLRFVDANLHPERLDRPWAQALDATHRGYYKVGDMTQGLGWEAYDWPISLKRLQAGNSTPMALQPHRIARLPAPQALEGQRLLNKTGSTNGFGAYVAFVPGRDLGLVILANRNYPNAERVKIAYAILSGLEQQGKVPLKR
Sequence of Beta-lactamase (P24735 whole entry): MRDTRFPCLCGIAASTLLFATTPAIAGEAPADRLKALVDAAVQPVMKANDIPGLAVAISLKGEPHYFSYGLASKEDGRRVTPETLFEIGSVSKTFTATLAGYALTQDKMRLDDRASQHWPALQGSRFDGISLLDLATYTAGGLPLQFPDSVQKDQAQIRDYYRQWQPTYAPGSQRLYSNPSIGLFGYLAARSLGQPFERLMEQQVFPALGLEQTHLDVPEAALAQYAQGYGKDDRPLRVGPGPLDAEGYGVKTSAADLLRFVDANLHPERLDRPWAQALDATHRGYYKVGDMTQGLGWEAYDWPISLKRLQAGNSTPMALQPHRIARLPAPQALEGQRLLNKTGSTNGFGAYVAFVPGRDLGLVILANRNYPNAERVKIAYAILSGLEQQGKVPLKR
Sequence of Beta-lactamase TEM (P62593 24-286 limits assumed): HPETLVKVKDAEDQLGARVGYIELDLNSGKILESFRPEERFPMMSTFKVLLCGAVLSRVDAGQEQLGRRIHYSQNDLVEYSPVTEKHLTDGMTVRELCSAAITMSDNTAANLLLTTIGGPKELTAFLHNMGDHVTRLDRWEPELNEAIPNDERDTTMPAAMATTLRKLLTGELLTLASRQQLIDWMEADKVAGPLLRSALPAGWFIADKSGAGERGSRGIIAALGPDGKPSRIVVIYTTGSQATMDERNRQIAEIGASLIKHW

Row | SMILES | k off [1] | Ratio [2] | Kon [3] | Ks [4] | Ratio [5] | MIC [6] | IC50 [7] | MIC [8] | MIC [9] | Ratio [10] | IC50 [11] | k off [12] | Ratio [13]
1 | CC(C)(C)OC(=O)N1CC[C@@H]2[C@H]1C(=O)N2S(=O)(=O)[O-].[Na+] | 3.7e-05 s⁻¹ | inactive | 11 s⁻¹ | 127 µM | 24 | 16 mg/L | 1.5 µM | – | – | – | – | – | –
2 | O=C(OCc1ccccc1)N1C[C@H](F)[C@@H]2[C@H]1C(=O)N2S(=O)(=O)[O-].[Na+] | – | – | – | – | – | 16 mg/L | 0.38 µM | > 16 mg/L | > 16 mg/L | – | – | – | –
3 | O=C(NC1CCNCC1)N1CC[C@@H]2[C@H]1C(=O)N2S(=O)(=O)[O-].[Na+] | 0.0012 s⁻¹ | – | 1.5 s⁻¹ | 1480 µM | 1 | 16 mg/L | 3.9 µM | – | – | 1.7 | – | – | –
4 | O=C1NCC[C@@H]1NC(=O)N1CC[C@@H]2[C@H]1C(=O)N2S(=O)(=O)[O-].[Na+] | – | – | – | – | – | 16 mg/L | 2.25 µM | 4 mg/L | 1 mg/L | – | – | – | –
5 | O=C(Nc1ccccc1)N1CC[C@@H]2[C@H]1C(=O)N2S(=O)(=O)[O-].[Na+] | – | – | – | – | – | 4 mg/L | – | 8 mg/L | 2 mg/L | – | 0.42 µM (not active) | – | –
6 | NC(C(=O)N1CC[C@@H]2[C@H]1C(=O)N2S(=O)(=O)[O-])c1ccc(O)cc1.[Na+] (stereo partly drawn) | < 1e-05 s⁻¹ | – | 2.7 s⁻¹ | 6.9 µM | 8.2 | 8 mg/L | 0.09 µM | – | – | 8.7 | – | – | –
7 | O=C(Nc1ccc(O)cc1)N1CC[C@@H]2[C@H]1C(=O)N2S(=O)(=O)[O-].[Na+] | 5.3e-05 s⁻¹ | – | 0.4 s⁻¹ | 50 µM | 38 | 8 mg/L | 0.155 µM | – | – | 0.6 | – | – | –
8 | NC(=O)/C=C1\CN(C(=O)OCc2ccccc2)[C@@H]2C(=O)N(S(=O)(=O)[O-])[C@H]12.[Na+] | – | – | – | – | – | 16 mg/L | 1.03 µM | > 16 mg/L | > 16 mg/L | – | – | – | –
9 | NC(=O)c1cccc(NC(=O)N2CC[C@@H]3[C@H]2C(=O)N3S(=O)(=O)[O-])c1.[Na+] | – | – | – | – | – | 16 mg/L | 0.024 µM | 16 mg/L | 1 mg/L | – | – | – | –
10 | O=C(O)[C@H]1/C(=C/CO)O[C@@H]2CC(=O)N21 [CLAVULANIC ACID] | – | – | – | – | – | 0.25 mg/L (≈ 1.26 µM) | – | > 32 mg/L | 8 mg/L (≈ 40.2 µM) | – | – | – | –
11 | [NH-]C(=O)c1ccc[n+](CC(=O)N2CC[C@@H]3[C@H]2C(=O)N3S(=O)(=O)[O-])c1.[Na+] | – | – | 0.9 s⁻¹ | 65 µM | 1.2 | 8 mg/L | 0.027 µM | – | – | 0.8 | – | 9e-06 s⁻¹ | –
12 | Cn1nnnc1S[C@@H]1CN(C(=O)OCc2ccccc2)[C@@H]2C(=O)N(S(=O)(=O)[O-])[C@@H]21.[Na+] | 4.1e-05 s⁻¹ | – | 3.8 s⁻¹ | 15 µM | 68 | 16 mg/L | 0.613 µM | – | – | 10 | – | – | –
13 | Cn1ccnc1SCC(=O)N1CC[C@@H]2[C@H]1C(=O)N2S(=O)(=O)[O-].[Na+] | – | – | – | – | – | 16 mg/L | 0.612 µM | 8 mg/L | 1 mg/L | – | – | – | –
14 | CC(C)(C)OC(=O)N1CCC[C@@H]2[C@H]1C(=O)N2S(=O)(=O)[O-].[Na+] | 0.0007 s⁻¹ | inactive | 0.5 s⁻¹ | 3500 µM | – | 16 mg/L | 145 µM | – | – | – | – | – | inactive
15 | O=C(OCc1ccccc1)N1CC[C@@H]2[C@H]1C(=O)N2S(=O)(=O)[O-].[Na+] | – | – | – | – | – | 16 mg/L | 0.2 µM | 128 mg/L | 8 mg/L | – | – | – | –
16 | O=C(/C=C/c1c[nH]cn1)N1CC[C@@H]2[C@H]1C(=O)N2S(=O)(=O)[O-].[Na+] | – | – | – | – | – | 16 mg/L | 0.11 µM | 8 mg/L | 0.5 mg/L | – | – | – | –
17 | Cn1nnnc1SCC(=O)N1CC[C@@H]2[C@H]1C(=O)N2S(=O)(=O)[O-].[Na+] | – | – | – | – | – | 8 mg/L | 0.2 µM | 8 mg/L | 0.5 mg/L | – | – | – | –
18 | NC(=O)c1ccc(NC(=O)N2CC[C@@H]3[C@H]2C(=O)N3S(=O)(=O)[O-])cc1.[Na+] | – | – | – | – | – | 16 mg/L | 0.217 µM | 4 mg/L | 0.5 mg/L | – | – | – | –
19 | Cc1nn(C)c(SCC(=O)N2CC[C@@H]3[C@H]2C(=O)N3S(=O)(=O)[O-])nc1=O.[Na+] | – | – | – | – | – | 16 mg/L | 0.055 µM | 16 mg/L | 0.25 mg/L | – | – | – | –
20 | Cn1cnnc1SCC(=O)N1CC[C@@H]2[C@H]1C(=O)N2S(=O)(=O)[O-].[Na+] | – | – | – | – | – | 8 mg/L | 0.853 µM | 128 mg/L | 1 mg/L | – | – | – | –
21 | NC(=O)Nc1ccc(NC(=O)N2CC[C@@H]3[C@H]2C(=O)N3S(=O)(=O)[O-])cc1.[Na+] | – | – | – | – | – | 16 mg/L | 0.048 µM | 4 mg/L | 0.25 mg/L | – | – | – | –
22 | O=C(CNc1ccc(O)cc1)N1CC[C@@H]2[C@H]1C(=O)N2S(=O)(=O)[O-].[Na+] | – | – | – | – | – | 8 mg/L | 0.025 µM | 128 mg/L | 8 mg/L | – | – | – | –
